System: MDA-MB-231 xenografts
Assay: Therapeutic efficacy in MDA-MB-231 xenografts
Type: in vivo, mouse
Details: tail vein injection on days 0 and 3 (29.6 MBq each for radioactive groups), end of treatment (26 days), mean ± SD, n = 5
Procedure: Five-week-old female athymic BALB/c nude mice (Shanghai Slaccas Experiment Animal Corp., Shanghai, China) were used in our study. Mouse xenograft models of MDA-MB-231, 4T1, and SK-BR-3 cells were produced by the subcutaneous injection of 5 × 10^6 cells (suspended in 150 μL PBS) into the right axilla of each mouse. The mice were used in subsequent experiments when tumor diameter reached 0.5-0.9 cm. The study protocol was approved by the institutional review board and by the Experimental Animal Center of Ruijin Hospital affiliated to the School of Medicine of Shanghai Jiao Tong University.
Twenty mice-bearing MDA-MB-231 human BC xenografts were divided into four groups of five animals. Group 1 was injected with ^131I-Var3-pHLIP in the tail vein on days 0 and 3 (29.6 MBq each day). Groups 2, 3, and 4 were injected with the same volume of Var3-pHLIP, ^131I (29.6 MBq), and saline solution, respectively. Tumor size was measured every 2 to 4 days postinjection (pi) for 26 days using a caliper. Tumor volumes (V, […]) were calculated using the formula: V = (a × b^2)/2, where a and b are tumor length and width, respectively. Relative tumor volumes were calculated as V/V0 (V0, tumor volume before treatment). The body weight of mice was also determined.

ACDDQNPWRAYLDLLFPTDTLLLDLLWK [Var3-pHLIP]
relative tumor volume (V/V0): 4.17 ± 0.51
